Patent US20090291964A1, “Potentiators of Antibacterial Activity” (priority 2003, published 2009)

What was measured:
[1] = tested on: E. faecalis clinical isolates; experiment: MIC90 studies: fluoroquinolone susceptibility of clinical isolate panel with EPI; type: cell-based; details: EPI at 50 μg/ml; for trend in the reduction of MICs for ciprofloxacin and norfloxacin: E. faecalis isolates, Table 5B
Outline: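 Fluoroquinolone MICs with efflux pump inhibitor measured against panels of resistant clinical isolates by NCCLS protocols. MIC90 taken across each panel. Oxacillin and vancomycin MICs run alongside to flag methicillin-resistant S. aureus and vancomycin-resistant E. faecalis isolates.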

S. aureus ATCC 29213 = experiment: MIC by NCCLS microdilution, antibacterial agents with and without EPI; type: cell-based; details: at 100 μg/ml
B. subtilis = experiment: MIC of EtBr in presence and absence of EPI; type: cell-based; details: B. subtilis wild type, EPI up to 100 μg/ml, data not shown
Description: (§1) EtBr is a general substrate for many different efflux pumps in bacteria. Markham et al., “Multiple Novel Inhibitors of the NorA Multidrug Transporter of Staphylococcus aureus”, Antimicrob. Agents Chemother. 43:2404-2408 (1999). Since EtBr is a non-specific DNA intercalator, the only known mechanism of resistance to EtBr is via efflux. Markham et al., “Multiple Novel Inhibitors of the NorA Multidrug Transporter of Staphylococcus aureus”, Antimicrob. Agents Chemother. 43:2404-2408 (1999).

[2] = tested on: permeability mutant strains of E. coli; experiment: MIC of EtBr in presence and absence of EPI; type: cell-based
Description: as §1

[3] = tested on: wild type gram negative organisms (E. coli, P. aeruginosa, and H. influenzae); experiment: MIC of EtBr in presence and absence of EPI; type: cell-based; details: all wild type gram-negative organisms, compared with gram-positive
Description: as §1

[4] = alone and in combination with chemotherapeutic agents for cancer therapies; cited from earlier work
[5] = E. faecalis clinical isolate 10
[6] = E. faecalis clinical isolate 11
[7] = E. faecalis clinical isolate 12
[8] = E. faecalis clinical isolate 13
[9] = E. faecalis clinical isolate 14
[10] = E. faecalis clinical isolate 15
[11] = E. faecalis clinical isolate 16
[12] = E. faecalis clinical isolate 17
[13] = E. faecalis clinical isolate 18
[14] = E. faecalis clinical isolate 19
[15] = E. faecalis clinical isolate 20
[16] = E. faecalis clinical isolate 21
[17] = E. faecalis clinical isolate 22
[18] = E. faecalis clinical isolate 23
[19] = E. faecalis clinical isolate 24
[20] = E. faecalis clinical isolate 25
[21] = E. faecalis clinical isolate 26

COc1cc(C(=O)C(=O)N2CCCC[C@H]2C(=O)OC(CCCc2cccnc2)CCCc2cccnc2)cc(OC)c1OC [A-106]
Ciprofloxacin MIC with EPI ([1]; E. faecalis clinical isolate 1): 0.5 µg/mL
Norfloxacin MIC with EPI ([1]; E. faecalis clinical isolate 1): 2 µg/mL
Ciprofloxacin MIC with EPI ([1]; E. faecalis clinical isolate 2): 0.5 µg/mL
Norfloxacin MIC with EPI ([1]; E. faecalis clinical isolate 2): 1 µg/mL
Ciprofloxacin MIC with EPI ([1]; E. faecalis clinical isolate 3): 32 µg/mL
Norfloxacin MIC with EPI ([1]; E. faecalis clinical isolate 3): 64 µg/mL
Ciprofloxacin MIC with EPI ([1]; E. faecalis clinical isolate 4): 32 µg/mL
Norfloxacin MIC with EPI ([1]; E. faecalis clinical isolate 4): 64 µg/mL
Ciprofloxacin MIC with EPI ([1]; E. faecalis clinical isolate 5): 32 µg/mL
Norfloxacin MIC with EPI ([1]; E. faecalis clinical isolate 5): 64 µg/mL
Ciprofloxacin MIC with EPI ([1]; E. faecalis clinical isolate 6): 0.5 µg/mL
Norfloxacin MIC with EPI ([1]; E. faecalis clinical isolate 6): 1 µg/mL
Ciprofloxacin MIC with EPI ([1]; E. faecalis clinical isolate 7): 0.5 µg/mL
Norfloxacin MIC with EPI ([1]; E. faecalis clinical isolate 7): 1 µg/mL
Ciprofloxacin MIC with EPI ([1]; E. faecalis clinical isolate 8): 32 µg/mL
Norfloxacin MIC with EPI ([1]; E. faecalis clinical isolate 8): 64 µg/mL
Ciprofloxacin MIC with EPI ([1]; E. faecalis clinical isolate 9): 1 µg/mL
Norfloxacin MIC with EPI ([1]; E. faecalis clinical isolate 9): 2 µg/mL
Ciprofloxacin MIC with EPI [1, 5]: 16 µg/mL
Norfloxacin MIC with EPI [1, 5]: 32 µg/mL
Ciprofloxacin MIC with EPI [1, 6]: 16 µg/mL
Norfloxacin MIC with EPI [1, 6]: 64 µg/mL
Ciprofloxacin MIC with EPI [1, 7]: 0.5 µg/mL
Norfloxacin MIC with EPI [1, 7]: 1 µg/mL
Ciprofloxacin MIC with EPI [1, 8]: 0.5 µg/mL
Norfloxacin MIC with EPI [1, 8]: 1 µg/mL
Ciprofloxacin MIC with EPI [1, 9]: 0.25 µg/mL
Norfloxacin MIC with EPI [1, 9]: 0.5 µg/mL
Ciprofloxacin MIC with EPI [1, 10]: 1 µg/mL
Norfloxacin MIC with EPI [1, 10]: 2 µg/mL
Ciprofloxacin MIC with EPI [1, 11]: 1 µg/mL
Norfloxacin MIC with EPI [1, 11]: 2 µg/mL
Ciprofloxacin MIC with EPI [1, 12]: 0.5 µg/mL
Norfloxacin MIC with EPI [1, 12]: 2 µg/mL
Ciprofloxacin MIC with EPI [1, 13]: 32 µg/mL
Norfloxacin MIC with EPI [1, 13]: 64 µg/mL
Ciprofloxacin MIC with EPI [1, 14]: 1 µg/mL
Norfloxacin MIC with EPI [1, 14]: 2 µg/mL
Ciprofloxacin MIC with EPI [1, 15]: 0.5 µg/mL
Norfloxacin MIC with EPI [1, 15]: 2 µg/mL
Ciprofloxacin MIC with EPI [1, 16]: 0.5 µg/mL
Norfloxacin MIC with EPI [1, 16]: 1 µg/mL
Ciprofloxacin MIC with EPI [1, 17]: 32 µg/mL
Norfloxacin MIC with EPI [1, 17]: 64 µg/mL
Ciprofloxacin MIC with EPI [1, 18]: 32 µg/mL
Norfloxacin MIC with EPI [1, 18]: 32 µg/mL
Ciprofloxacin MIC with EPI [1, 19]: 16 µg/mL
Norfloxacin MIC with EPI [1, 19]: 32 µg/mL
Ciprofloxacin MIC with EPI [1, 20]: 32 µg/mL
Norfloxacin MIC with EPI [1, 20]: 64 µg/mL
Ciprofloxacin MIC with EPI [1, 21]: 32 µg/mL
Norfloxacin MIC with EPI [1, 21]: 64 µg/mL
trend in the reduction of MICs for ciprofloxacin and norfloxacin [1]: two-fold trend in the reduction of MICs
intrinsic antibacterial activity of EPI (S. aureus ATCC 29213): no intrinsic antibacterial activity
reduction of the MIC of EtBr (B. subtilis): 8 fold
efflux inhibitory activity [2]: some efflux inhibitory activity was observed
activity against efflux of EtBr [3]: much less active
adverse events in clinical studies [4]: only mild adverse events

COc1cc(C(=O)C(=O)N(C)[C@@H](Cc2ccc(Cl)cc2)C(=O)N(Cc2ccccc2)C(CCc2ccncc2)CCc2ccncc2)cc(OC)c1OC [C-9, (S)—N-Benzyl-2-(methyl-(2-oxo-2-(3,4,5-trimethoxyphenyl)acetyl)amino)-3-(4-chloro-phenyl)-N-(3-pyridin-4-yl-1-(2-pyridin-4-yl-ethyl)propyl)propionamide]
Ciprofloxacin MIC with EPI ([1]; E. faecalis clinical isolate 1): 1 µg/mL
Norfloxacin MIC with EPI ([1]; E. faecalis clinical isolate 1): 2 µg/mL
Ciprofloxacin MIC with EPI ([1]; E. faecalis clinical isolate 2): 1 µg/mL
Norfloxacin MIC with EPI ([1]; E. faecalis clinical isolate 2): 2 µg/mL
Ciprofloxacin MIC with EPI ([1]; E. faecalis clinical isolate 3): 64 µg/mL
Norfloxacin MIC with EPI ([1]; E. faecalis clinical isolate 3): 128 µg/mL
Ciprofloxacin MIC with EPI ([1]; E. faecalis clinical isolate 4): 64 µg/mL
Norfloxacin MIC with EPI ([1]; E. faecalis clinical isolate 4): 128 µg/mL
Ciprofloxacin MIC with EPI ([1]; E. faecalis clinical isolate 5): 64 µg/mL
Norfloxacin MIC with EPI ([1]; E. faecalis clinical isolate 5): 64 µg/mL
Ciprofloxacin MIC with EPI ([1]; E. faecalis clinical isolate 6): 1 µg/mL
Norfloxacin MIC with EPI ([1]; E. faecalis clinical isolate 6): 8 µg/mL
Ciprofloxacin MIC with EPI ([1]; E. faecalis clinical isolate 7): 1 µg/mL
Norfloxacin MIC with EPI ([1]; E. faecalis clinical isolate 7): 2 µg/mL
Ciprofloxacin MIC with EPI ([1]; E. faecalis clinical isolate 8): 32 µg/mL
Norfloxacin MIC with EPI ([1]; E. faecalis clinical isolate 8): 128 µg/mL
Ciprofloxacin MIC with EPI ([1]; E. faecalis clinical isolate 9): 1 µg/mL
Norfloxacin MIC with EPI ([1]; E. faecalis clinical isolate 9): 2 µg/mL
Ciprofloxacin MIC with EPI [1, 5]: 64 µg/mL
Norfloxacin MIC with EPI [1, 5]: 64 µg/mL
Ciprofloxacin MIC with EPI [1, 6]: 32 µg/mL
Norfloxacin MIC with EPI [1, 6]: 64 µg/mL
Ciprofloxacin MIC with EPI [1, 7]: 1 µg/mL
Norfloxacin MIC with EPI [1, 7]: 2 µg/mL
Ciprofloxacin MIC with EPI [1, 8]: 0.5 µg/mL
Norfloxacin MIC with EPI [1, 8]: 2 µg/mL
Ciprofloxacin MIC with EPI [1, 9]: 0.5 µg/mL
Norfloxacin MIC with EPI [1, 9]: 2 µg/mL
Ciprofloxacin MIC with EPI [1, 10]: 2 µg/mL
Norfloxacin MIC with EPI [1, 10]: 4 µg/mL
Ciprofloxacin MIC with EPI [1, 11]: 1 µg/mL
Norfloxacin MIC with EPI [1, 11]: 4 µg/mL
Ciprofloxacin MIC with EPI [1, 12]: 1 µg/mL
Norfloxacin MIC with EPI [1, 12]: 2 µg/mL
Ciprofloxacin MIC with EPI [1, 13]: 64 µg/mL
Norfloxacin MIC with EPI [1, 13]: 128 µg/mL
Ciprofloxacin MIC with EPI [1, 14]: 1 µg/mL
Norfloxacin MIC with EPI [1, 14]: 4 µg/mL
Ciprofloxacin MIC with EPI [1, 15]: 1 µg/mL
Norfloxacin MIC with EPI [1, 15]: 2 µg/mL
Ciprofloxacin MIC with EPI [1, 16]: 1 µg/mL
Norfloxacin MIC with EPI [1, 16]: 4 µg/mL
Ciprofloxacin MIC with EPI [1, 17]: 64 µg/mL
Norfloxacin MIC with EPI [1, 17]: 128 µg/mL
Ciprofloxacin MIC with EPI [1, 18]: 32 µg/mL
Norfloxacin MIC with EPI [1, 18]: 64 µg/mL
Ciprofloxacin MIC with EPI [1, 19]: 32 µg/mL
Norfloxacin MIC with EPI [1, 19]: 64 µg/mL
Ciprofloxacin MIC with EPI [1, 20]: 64 µg/mL
Norfloxacin MIC with EPI [1, 20]: 128 µg/mL
Ciprofloxacin MIC with EPI [1, 21]: 64 µg/mL
Norfloxacin MIC with EPI [1, 21]: 128 µg/mL
trend in the reduction of MICs for ciprofloxacin and norfloxacin [1]: less apparent
intrinsic antibacterial activity of EPI (S. aureus ATCC 29213): no intrinsic antibacterial activity
reduction of the MIC of EtBr (B. subtilis): 8 fold
efflux inhibitory activity [2]: some efflux inhibitory activity was observed
activity against efflux of EtBr [3]: much less active
